In patent US7572800B2, “Combination therapy to treat hepatitis B virus” (Gilead Sciences, Inc., priority 1998, dated 2009):

What was measured:
2.2.15 cells = assay: Toxicity analysis by uptake of neutral red dye; conditions: at the concentrations used for the antiviral evaluations
Protocol: Toxicity analysis were performed in 96-well flat bottomed tissue culture plates. Cells for the toxicity analyses were cultured and treated with test compounds with the same schedule and under identical culture conditions as used for the antiviral evaluations. Each compound was tested at 4 concentrations, each in triplicate cultures. Uptake of neutral red dye was used to determine the relative level of toxicity 24 hours following the last treatment. The absorbance of internalized dye at 510 nM (A510) was used for the quantative analysis. Values are presented as a percentage of the average A510 values (±standard deviations) in 9 separate cultures of untreated cells maintained on the same 96-well plate as the test compounds.

HBV = assay: Antiviral evaluation: extracellular (virion) HBV DNA levels produced by 2.2.15 cells; type: cell-based, hepatitis B virus; conditions: for depression of extracellular (virion) HBV DNA levels: 9 consecutive daily doses
Protocol: Details of the assay methodology can be found in: Korba and Gerin, Antiviral Res. 19: 55-70 (1992) and Korba, Antiviral Res. 29: 49-52 (1996). The antiviral evaluations were performed on six separate cultures per each of four test concentrations. All wells, in all plates, were seeded at the same density and at the same time.
Due to the inherent variations in the levels of both intracellular and extracellular HBV DNA, only depressions greater than 3.0-fold for HBV virion DNA from the average levels for these HBV DNA forms in untreated cells are generally considered to be statistically significant [P<0.05] (Korba and Gerin, Antiviral Res. 19: 55-70, 1992). Typical values for extracellular HBV virion DNA in untreated cells range from 80 to 150 pg/ml culture medium (average of approximately 92 pg/ml).
For reference, the manner in which the hybridization analyses were performed for these experiments results in an equivalence of approximately 1.0 pg of extracellular HBV DNA/ml culture medium to 3×10^5 viral particles/ml.
For the antiviral test analyses, confluent cultures were maintained on 96-well flat bottomed tissue culture plates. Two separate (replicate) plates were used for each drug treatment. A total of 3 cultures on each plate were treated with each of the dilutions of antiviral agents (6 cultures per dilution). Cultures were treated with 9 consecutive daily doses of the test compounds. Medium was changed daily with fresh test compounds. Only extracellular (virion) HBV DNA levels were followed.

Nc1nc(=O)n([C@@H]2CS[C@H](CO)O2)cc1F [FTC, β-2-Hydroxymethyl-5-(5-fluorocytosin-1-yl)-1,3-oxathiolane]
toxicity (greater than 50% depression of neutral red dye uptake levels observed in untreated cells) (2.2.15 cells): No significant toxicity
anti-HBV activity/potency compared with previous reports or earlier analyses (HBV): lower than that observed in earlier analyses
depression of extracellular (virion) HBV DNA levels (HBV): significant and selective depressions

Nc1ccn([C@@H]2CS[C@H](CO)O2)c(=O)n1 [3TC, (−)β,L,2′,3′-dideoxy-3′thiacytidine]
toxicity (greater than 50% depression of neutral red dye uptake levels observed in untreated cells) (2.2.15 cells): No significant toxicity

Cc1cn([C@H]2O[C@@H](CO)[C@H](O)[C@H]2F)c(=O)[nH]c1=O [L-FMAU, 2′-fluoro-5-methyl-β-L-arabinofuranolyluridine]
anti-HBV activity/potency compared with previous reports or earlier analyses (HBV): lower than that observed in earlier analyses
depression of extracellular (virion) HBV DNA levels (HBV): significant and selective depressions

Nc1nc(N)c2ncn([C@H]3CO[C@@H](CO)O3)c2n1 [DAPD]
anti-HBV activity/potency compared with previous reports or earlier analyses (HBV): lower than that observed in earlier analyses
depression of extracellular (virion) HBV DNA levels (HBV): significant and selective depressions

Nc1nc2c(ncn2CCC(CO)CO)c(=O)[nH]1 [PCV, 2-amino-1,9-dihydro-9-[4-hydroxy-3-(hydroxymethyl)butyl]-6H-purin-6-one, reference compound]
toxicity (greater than 50% depression of neutral red dye uptake levels observed in untreated cells) (2.2.15 cells): No significant toxicity
anti-HBV activity/potency compared with previous reports or earlier analyses (HBV): higher than previously reported
depression of extracellular (virion) HBV DNA levels (HBV): significant depressions

Nc1nc2c(ncn2C2COC(CO)O2)c(=O)[nH]1 (stereo not drawn) [DXG]
depression of extracellular (virion) HBV DNA levels (HBV): significant and selective depressions
